For 28 substances, target mRNA inhibition results are on record in the OligoGym collection.

For the data set, the target named is HBV. The settings on record: ASO.

“And” between values parts separate entries of the source, which are not always exact repeats. Equal values may be shown once. HELM strings list units from the 5' end as sugar, base in round brackets, then linkage (d deoxyribose, r ribose, m 2'-O-methyl, p phosphodiester). Methylation of C is not given here. [moe] = 2'-O-(2-methoxyethyl) (MOE); [cEt] = constrained ethyl (cEt); [sp] = phosphorothioate linkage

As for “RNA1{[moe](A)[sp].[cEt](G)[sp].d(G)[sp].d(T)[sp].d(G)[sp].d(A)[sp].d(A)[sp].d(G)[sp].d(C)[sp].d(G)[sp].d(A)[sp].d(A)[sp].[cEt](G)[sp].[moe](T)[sp].[cEt](G)[sp].[moe](C)}$$$$V2.0”, the target mRNA inhibition was 12% (HepG2, 0.0092593 µM); 36% (HepG2, 0.0277778 µM); 78% and 85% (HepG2, 0.07 µM); 67% (HepG2, 0.0833333 µM); 80% (HepG2, 0.25 µM). Consider “RNA1{[moe](G)[sp].[cEt](A)[sp].d(A)[sp].d(C)[sp].d(A)[sp].d(A)[sp].d(A)[sp].d(T)[sp].d(G)[sp].d(G)[sp].d(C)[sp].d(A)[sp].[cEt](C)[sp].[moe](T)[sp].[cEt](A)[sp].[moe](G)}$$$$V2.0”, for which the target mRNA inhibition (HepG2, 0.07 µM) was 75% and 79%. Same read-out and setting: in the case of “RNA1{[moe](A)[sp].[moe](A)[sp].[moe](C)[sp].d(C)[sp].d(A)[sp].d(C)[sp].d(T)[sp].d(G)[sp].d(A)[sp].d(A)[sp].d(C)[sp].d(A)[sp].[moe](A)[sp].[moe](A)[sp].[moe](T)[sp].[moe](G)}$$$$V2.0” it was 20% and 37%. Same read-out and setting: then “RNA1{[moe](C)[sp].[moe](T)[sp].[moe](A)[sp].[moe](G)[sp].[moe](T)[sp].d(A)[sp].d(A)[sp].d(A)[sp].d(C)[sp].d(T)[sp].d(G)[sp].d(A)[sp].d(G)[sp].d(C)[sp].[moe](C)[sp].[moe](A)}$$$$V2.0”, with 71% and 63%. As to “RNA1{[moe](A)[sp].[moe](A)[sp].[moe](G)[sp].[moe](C)[sp].[cEt](G)[sp].[cEt](A)[sp].d(A)[sp].d(G)[sp].d(T)[sp].d(G)[sp].d(C)[sp].d(A)[sp].d(C)[sp].[moe](A)[sp].[moe](C)[sp].[moe](G)[sp].[moe](G)}$$$$V2.0”, the target mRNA inhibition was determined as 26% (HepG2, 0.009375 µM); 29% (HepG2, 0.01875 µM); 30% (HepG2, 0.0375 µM); 64% (HepG2, 0.075 µM); 80% (HepG2, 0.15 µM); 91% (HepG2, 0.3 µM).

With “RNA1{[moe](T)[sp].[moe](G)[sp].d(G)[sp].d(A)[sp].d(G)[sp].d(C)[sp].d(C)[sp].d(A)[sp].d(C)[sp].d(C)[sp].d(A)[sp].[moe](G)[sp].[moe](C)[sp].[moe](A)[sp].[moe](G)[sp].[moe](G)}$$$$V2.0”, the target mRNA inhibition (HepG2, 0.07 µM) was 29% and 41%.

Take “RNA1{[moe](A)[sp].[moe](G)[sp].[moe](G)[sp].[moe](C)[sp].d(A)[sp].d(T)[sp].d(A)[sp].d(G)[sp].d(C)[sp].d(A)[sp].d(G)[sp].d(C)[sp].d(A)[sp].[moe](G)[sp].[moe](G)[sp].[moe](A)}$$$$V2.0”: the target mRNA inhibition (HepG2, 0.07 µM) was 52% and 36%. “RNA1{[moe](A)[sp].[moe](C)[sp].[moe](G)[sp].[moe](T)[sp].[moe](G)[sp].d(C)[sp].d(A)[sp].d(G)[sp].d(A)[sp].d(G)[sp].d(G)[sp].d(T)[sp].d(G)[sp].d(A)[sp].[moe](A)[sp].[moe](G)}$$$$V2.0”: the target mRNA inhibition (HepG2, 0.07 µM) was 6% and 13%. Regarding “RNA1{[moe](C)[sp].[moe](A)[sp].[moe](A)[sp].[moe](T)[sp].[moe](T)[sp].d(T)[sp].d(A)[sp].d(T)[sp].d(G)[sp].d(C)[sp].d(C)[sp].d(T)[sp].d(A)[sp].d(C)[sp].[moe](A)[sp].[moe](G)}$$$$V2.0”, the target mRNA inhibition (HepG2, 0.07 µM) is 24% and 11%.

Regarding “RNA1{[moe](A)[sp].[moe](C)[sp].d(C)[sp].d(A)[sp].d(C)[sp].d(T)[sp].d(G)[sp].d(A)[sp].d(A)[sp].d(C)[sp].d(A)[sp].[moe](A)[sp].[moe](A)[sp].[moe](T)[sp].[moe](G)[sp].[moe](G)[sp].[moe](C)}$$$$V2.0”, the target mRNA inhibition (HepG2, 0.07 µM) is 58% and 68%.

Consider “RNA1{[moe](G)[sp].[moe](T)[sp].[moe](G)[sp].d(A)[sp].d(A)[sp].d(G)[sp].d(C)[sp].d(G)[sp].d(A)[sp].d(A)[sp].d(G)[sp].d(T)[sp].[moe](G)[sp].[moe](C)[sp].[moe](A)[sp].[moe](C)[sp].[moe](A)}$$$$V2.0”, for which the target mRNA inhibition (HepG2, 0.07 µM) was 71% and 63%. In the case of “RNA1{[moe](A)[sp].[moe](G)[sp].[moe](C)[sp].d(G)[sp].d(A)[sp].d(A)[sp].d(G)[sp].d(T)[sp].d(G)[sp].d(C)[sp].d(A)[sp].d(C)[sp].d(A)[sp].[cEt](C)[sp].[cEt](G)[sp].[cEt](G)}$$$$V2.0”, the target mRNA inhibition reads like this: (HepG2, 0.0092593 µM) 17%; (HepG2, 0.0277778 µM) 49%; (HepG2, 0.07 µM) 82% and 86%; (HepG2, 0.0833333 µM) 79%; (HepG2, 0.25 µM) 90%. As to “RNA1{[moe](A)[sp].[cEt](A)[sp].[cEt](G)[sp].d(G)[sp].d(C)[sp].d(A)[sp].d(C)[sp].d(A)[sp].d(G)[sp].d(C)[sp].d(T)[sp].d(T)[sp].d(G)[sp].[cEt](G)[sp].[cEt](A)[sp].[moe](G)}$$$$V2.0”, where the note is “HepG2, 0.07 µM”, the target mRNA inhibition is 32% and 15%.

Consider “RNA1{[moe](A)[sp].[moe](C)[sp].[moe](T)[sp].[moe](A)[sp].d(G)[sp].d(T)[sp].d(A)[sp].d(A)[sp].d(A)[sp].d(C)[sp].d(T)[sp].d(G)[sp].d(A)[sp].[moe](G)[sp].[moe](C)[sp].[moe](C)[sp].[moe](A)}$$$$V2.0”, for which the target mRNA inhibition (HepG2, 0.07 µM) is 62% and 58%. Regarding “RNA1{[moe](A)[sp].[moe](C)[sp].[moe](G)[sp].[moe](T)[sp].d(G)[sp].d(C)[sp].d(A)[sp].d(G)[sp].d(A)[sp].d(G)[sp].d(G)[sp].d(T)[sp].d(G)[sp].[moe](A)[sp].[moe](A)[sp].[moe](G)[sp].[moe](C)}$$$$V2.0”, the target mRNA inhibition (HepG2, 0.07 µM) is 62% and 57%.

For the substance “RNA1{[moe](T)[sp].[moe](G)[sp].[moe](A)[sp].d(G)[sp].d(G)[sp].d(C)[sp].d(A)[sp].d(T)[sp].d(A)[sp].d(G)[sp].d(C)[sp].d(A)[sp].[moe](G)[sp].[moe](C)[sp].[moe](A)[sp].[moe](G)}$$$$V2.0”, the target mRNA inhibition (HepG2, 0.07 µM) is 60% and 49%. For the substance “RNA1{[moe](A)[sp].[moe](G)[sp].[moe](A)[sp].d(G)[sp].d(G)[sp].d(T)[sp].d(G)[sp].d(A)[sp].d(A)[sp].d(G)[sp].d(C)[sp].d(G)[sp].[moe](A)[sp].[moe](A)[sp].[moe](G)[sp].[moe](T)[sp].[moe](G)}$$$$V2.0”, the target mRNA inhibition (HepG2, 0.07 µM) is 70% and 52%.

On to “RNA1{[moe](T)[sp].[moe](A)[sp].[moe](T)[sp].[moe](G)[sp].[moe](C)[sp].d(C)[sp].d(T)[sp].d(A)[sp].d(C)[sp].d(A)[sp].d(G)[sp].d(C)[sp].d(C)[sp].d(T)[sp].[moe](C)[sp].[moe](C)}$$$$V2.0”, for which the target mRNA inhibition (HepG2, 0.07 µM) was 47% and 42%. Still for that read-out and setting: then “RNA1{[moe](A)[sp].[cEt](G)[sp].[cEt](G)[sp].d(C)[sp].d(A)[sp].d(T)[sp].d(A)[sp].d(G)[sp].d(C)[sp].d(A)[sp].d(G)[sp].d(C)[sp].d(A)[sp].[cEt](G)[sp].[cEt](G)[sp].[moe](A)}$$$$V2.0”, with 72% and 70%; and “RNA1{[moe](T)[sp].[moe](G)[sp].[moe](C)[sp].[moe](A)[sp].[moe](G)[sp].d(A)[sp].d(G)[sp].d(G)[sp].d(T)[sp].d(G)[sp].d(A)[sp].d(A)[sp].d(G)[sp].d(C)[sp].[moe](G)[sp].[moe](A)}$$$$V2.0”, with 61% and 52%; and “RNA1{[moe](G)[sp].[moe](C)[sp].[moe](A)[sp].[moe](G)[sp].[moe](A)[sp].d(G)[sp].d(G)[sp].d(T)[sp].d(G)[sp].d(A)[sp].d(A)[sp].d(G)[sp].d(C)[sp].d(G)[sp].[moe](A)[sp].[moe](A)}$$$$V2.0”, with 63% and 58%. As for “RNA1{[moe](A)[sp].[cEt](C)[sp].[cEt](T)[sp].d(G)[sp].d(G)[sp].d(A)[sp].d(G)[sp].d(C)[sp].d(C)[sp].d(A)[sp].d(C)[sp].d(C)[sp].d(A)[sp].[cEt](G)[sp].[cEt](C)[sp].[moe](A)}$$$$V2.0”, for the setting “HepG2, 0.07 µM”, the target mRNA inhibition is 67% and 75%.

Regarding “RNA1{[moe](G)[sp].[cEt](A)[sp].[cEt](A)[sp].d(G)[sp].d(T)[sp].d(C)[sp].d(C)[sp].d(A)[sp].d(C)[sp].d(C)[sp].d(A)[sp].d(C)[sp].d(G)[sp].[cEt](A)[sp].[cEt](G)[sp].[moe](T)}$$$$V2.0”, the target mRNA inhibition (HepG2, 0.07 µM) is 59% and 53%. Consider “RNA1{[moe](A)[sp].[moe](T)[sp].[moe](T)[sp].[moe](T)[sp].[moe](A)[sp].[moe](T)[sp].d(G)[sp].d(C)[sp].d(C)[sp].d(T)[sp].d(A)[sp].d(C)[sp].d(A)[sp].d(G)[sp].d(C)[sp].[moe](C)[sp].[moe](T)}$$$$V2.0”, for which the target mRNA inhibition (HepG2, 0.0092593 µM) was 0%; the target mRNA inhibition (HepG2, 0.0277778 µM) worked out at 12%; the target mRNA inhibition (HepG2, 0.07 µM) was 74% and 57%; the target mRNA inhibition (HepG2, 0.0833333 µM) was 24%; the target mRNA inhibition (HepG2, 0.25 µM) was determined as 46%. Regarding “RNA1{[moe](G)[sp].[moe](A)[sp].[moe](T)[sp].[moe](G)[sp].[moe](A)[sp].[moe](G)[sp].d(G)[sp].d(C)[sp].d(A)[sp].d(T)[sp].d(A)[sp].d(G)[sp].d(C)[sp].d(A)[sp].d(G)[sp].[moe](C)[sp].[moe](A)}$$$$V2.0”, the target mRNA inhibition (HepG2, 0.07 µM) was 63% and 44%. On the same count and under the same terms, then “RNA1{[moe](T)[sp].[moe](T)[sp].[moe](T)[sp].[moe](A)[sp].d(T)[sp].d(G)[sp].d(C)[sp].d(C)[sp].d(T)[sp].d(A)[sp].d(C)[sp].d(A)[sp].d(G)[sp].[moe](C)[sp].[moe](C)[sp].[moe](T)}$$$$V2.0”, with 51% and 38%; and “RNA1{[moe](G)[sp].[moe](A)[sp].d(T)[sp].d(G)[sp].d(A)[sp].d(G)[sp].d(G)[sp].d(C)[sp].d(A)[sp].d(T)[sp].d(A)[sp].[moe](G)[sp].[moe](C)[sp].[moe](A)[sp].[moe](G)[sp].[moe](C)[sp].[moe](A)}$$$$V2.0”, with 72% and 65%. As for “RNA1{[moe](C)[sp].[moe](G)[sp].[moe](C)[sp].[moe](A)[sp].[moe](G)[sp].[moe](T)[sp].d(A)[sp].d(T)[sp].d(G)[sp].d(G)[sp].d(A)[sp].d(T)[sp].d(C)[sp].d(G)[sp].d(G)[sp].[moe](C)[sp].[moe](A)}$$$$V2.0”, the target mRNA inhibition by setting is: (HepG2, 0.0092593 µM) 10%; (HepG2, 0.0277778 µM) 35%; (HepG2, 0.07 µM) 83% and 70%; (HepG2, 0.0833333 µM) 44%; (HepG2, 0.25 µM) 76%.
